Data reported in patent publication US8530493B2, “Indolopyridines as Eg5 kinesin modulators” (4SC AG, priority 2006, dated 2013).

Key:
[1] = system: RKO p27 induced (arrested) colon adenocarcinoma cells; test: Alamar Blue cell viability assay, RKO p27 induced by Ponasterone A (arrested); assay type: cell-based; details: Homo sapiens, RKOp27, Table B1, cells arrested by Ponasterone A-induced p27Kip1, 72 hours, read-out: −log EC50 RKO p27 induced (arrested) (converted)
Method: (§1) To determine the cell cycle specific mode of action, subclones of RKO colon adenocarcinoma cells (RKOp21 or RKOp27 as described by Schmidt et al. in Oncogene 19, 2423-2429; 2000) are seeded into 96 well flat bottom plates at a density of 16000 cells per well in a volume of 50 μl per well in DMEM growth medium with 10% FCS containing 10 μM Ponasterone A. 24 hours after seeding the 50 μl each of the compound dilutions in DMEM medium are added into each well of the 96-well plate. Each compound dilution is tested as triplicates. Wells containing untreated control cells are filled with 50 μl DMEM medium containing 1% DMSO. The cells are then incubated with the substances for 72 hours at 37° C. in a humidified atmosphere containing 5% carbon dioxide. To determine the viability of the cells, 10 μl of an Alamar Blue solution (Biosource) are added and the fluorescence is measured at an extinction of 544 nm and an emission of 590 nm. For the calculation of the cell viability the emission value from untreated cells is set as 100% viability and the emission rates of treated cells are set in relation to the values of untreated cells. Viabilities are expressed as % values. The Graphpad Prism program (GraphPad Software, Inc) is used for the calculation of EC50 values out of the obtained dose-response curves. Viability is compared of proliferating cells grown in the absence of the inducer Ponasterone A, versus viability of cells arrested by the expression of ectopic p27Kip1 induced by Ponasterone A.
(§2) Representative values for anti-proliferation/cytotoxicity [measured as −log EC50 (mol/l)] determined in the aforementioned assays follow from the following tables B1, B2 and B3, in which the numbers of the compounds correspond to the numbers of the examples.

[2] = system: RKO p27 uninduced (proliferating) colon adenocarcinoma cells; test: Alamar Blue cell viability assay, RKO p27 uninduced (proliferating); assay type: cell-based; details: Homo sapiens, RKOp27, Table B1, anti-proliferative/cytotoxic activity, 72 hours, read-out: −log EC50 RKO p27 uninduced (proliferating) (converted)
Method: The anti-proliferative/cytotoxic activity of the compounds described herein can be tested on subclones of RKO human colon adenocarcinoma cells (Schmidt et al., Oncogene 19, 2423-2429; 2000) using the Alamar Blue cell viability assay (described in O'Brien et al. Eur J Biochem 267, 5421-5426, 2000). The compounds are dissolved as 10 mM solutions in DMSO and subsequently diluted in semi-logarithmic steps. DMSO dilutions are further diluted 1:100 into Dulbecco's modified Eagle's medium (DMEM) containing 10% fetal calf serum to a final concentration twice as much as the final concentration in the test. RKO subclones are seeded into 96 well flat bottom plates at a density of 4000 cells per well in a volume of 50 μl per well. 24 hours after seeding the 50 μl each of the compound dilutions in DMEM medium are added into each well of the 96 well plate. Each compound dilution is tested as triplicates. Wells containing untreated control cells are filled with 50 μl DMEM medium containing 1% DMSO. The cells are then incubated with the substances for 72 hours at 37° C. in a humidified atmosphere containing 5% carbon dioxide. To determine the viability of the cells, 10 μl of an Alamar Blue solution (Biosource) are added and the fluorescence is measured at an extinction of 544 nm and an emission of 590 nm. For the calculation of the cell viability the emission value from untreated cells is set as 100% viability and the emission rates of treated cells are set in relation to the values of untreated cells. Viabilities are expressed as % values. The Graphpad Prism program is used for the calculation of EC50 values for anti-proliferative/cytotoxic activity out of the obtained dose-response curves.
as §1, §2

Compound | EC50 [1] [µM] | EC50 [2] [µM]
CNCCN1C(=O)N2[C@H](c3cccc(O)c3)c3[nH]c4ccc(OC(F)F)cc4c3C[C@@]2(C)C1=O (racemic) [Example 42, (3aSR,10RS)-6-(1,1-Difluoro-methoxy)-10-(3-hydroxy-phenyl)-3a-methyl-2-(2-methylaminoethyl)-3a,4,9,10-tetrahydro-2,9,10a-triaza-cyclopenta[b]fluorene-1,3-dione] | ≥ 3.16 | ≤ 0.0398
CCNCCN1C(=O)N2[C@H](c3cccc(O)c3)c3[nH]c4ccc(Cl)cc4c3C[C@@]2(C)C1=O (racemic) [Example 37, (3aSR,10RS)-6-Chloro-2-(2-ethylamino-ethyl)-10-(3-hydroxy-phenyl)-3a-methyl-3a,4,9,10-tetrahydro-2,9,10a-triaza-cyclopenta[b]fluorene-1,3-dione] | ≥ 0.316 | ≤ 0.0398
C[C@@]12Cc3c([nH]c4ccc(OC(F)F)cc34)[C@@H](c3cccc(O)c3)N1C(=O)N(CCN1CCC1)C2=O (racemic) [Example 44, (3aSR,10RS)-2-(2-Azetidin-1-yl-ethyl)-6-(1,1-difluoro-methoxy)-10-(3-hydroxy-phenyl)-3a-methyl-3a,4,9,10-tetrahydro-2,9,10a-triaza-cyclopenta[b]fluorene-1,3-dione] | ≥ 3.16 | ≤ 0.0398
CN(C)CCCN1C(=O)N2[C@H](c3cccc(O)c3)c3[nH]c4ccc(Cl)cc4c3C[C@@]2(C)C1=O (racemic) [Example 16, (3aSR,10RS)-6-Chloro-2-(3-dimethylamino-propyl)-10-(3-hydroxy-phenyl)-3a-methyl-3a,4,9,10-tetrahydro-2,9,10a-triaza-cyclopenta[b]fluorene-1,3-dione] | ≥ 3.16 | ≤ 0.0398
CCOc1ccc2[nH]c3c(c2c1)C[C@@]1(C)C(=O)N(CCN)C(=O)N1[C@@H]3c1cccc(O)c1 (racemic) [Example 45, (3aSR,10RS)-2-(2-Amino-ethyl)-6-ethoxy-10-(3-hydroxy-phenyl)-3a-methyl-3a,4,9,10-tetrahydro-2,9,10a-triaza-cyclopenta[b]fluorene-1,3-dione] | ≥ 0.316 | ≤ 0.0398
CCNCCCN1C(=O)N2[C@H](c3cccc(O)c3)c3[nH]c4ccc(OC)cc4c3C[C@@]2(C)C1=O (racemic) [Example 51, (3aSR,10RS)-2-(3-Ethylamino-propyl)-10-(3-hydroxy-phenyl)-6-methoxy-3a-methyl-3a,4,9,10-tetrahydro-2,9,10a-triaza-cyclopenta[b]fluorene-1,3-dione] | ≥ 3.16 | ≤ 0.0398
COc1ccc2[nH]c3c(c2c1)C[C@@]1(C)C(=O)N(C)C(=O)N1[C@@H]3c1cccc(O)c1 (racemic) [Example 3, (3aSR,10RS)-10-(3-Hydroxy-phenyl)-6-methoxy-2,3a-dimethyl-3a,4,9,10-tetrahydro-2,9,10a-triaza-cyclopenta[b]fluorene-1,3-dione] | ≥ 3.16 | ≤ 0.0398
CN1C(=O)N2[C@H](c3cccc(O)c3)c3[nH]c4ccc(Cl)cc4c3C[C@@]2(C)C1=O (racemic) [Example 5, (3aSR,10RS)-6-Chloro-10-(3-hydroxy-phenyl)-2,3a-dimethyl-3a,4,9,10-tetrahydro-2,9,10a-triaza-cyclopenta[b]fluorene-1,3-dione] | ≥ 3.16 | 0.0398 to 0.251
COc1ccc2[nH]c3c(c2c1)C[C@@]1(C)C(=O)N(CCNC(C)C)C(=O)N1[C@@H]3c1cccc(O)c1 (racemic) [Example 47, (3aSR,10RS)-10-(3-Hydroxy-phenyl)-2-(2-isopropylamino-ethyl)-6-methoxy-3a-methyl-3a,4,9,10-tetrahydro-2,9,10a-triaza-cyclopenta[b]fluorene-1,3-dione] | ≥ 3.16 | ≤ 0.0398
COc1ccc2[nH]c3c(c2c1)C[C@@]1(C)C(=O)N(CCN(C)C)C(=O)N1[C@@H]3c1cccc(O)c1 (racemic) [Example 7, (3aSR,10RS)-2-(2-Dimethylamino-ethyl)-10-(3-hydroxy-phenyl)-6-methoxy-3a-methyl-3a,4,9,10-tetrahydro-2,9,10a-triaza-cyclopenta[b]fluorene-1,3-dione] | ≥ 3.16 | ≤ 0.0398
CCOc1ccc2[nH]c3c(c2c1)C[C@@]1(C)C(=O)N(C)C(=O)N1[C@@H]3c1cccc(O)c1 (racemic) [Example 1, (3aSR,10RS)-6-Ethoxy-10-(3-hydroxy-phenyl)-2,3a-dimethyl-3a,4,9,10-tetrahydro-2,9,10a-triaza-cyclopenta[b]fluorene-1,3-dione] | ≥ 3.16 | 0.0398 to 0.251
COc1ccc2[nH]c3c(c2c1)C[C@@]1(C)C(=O)N(CCN(C)C)C(=O)N1[C@@H]3c1cccc(O)c1 (single isomer, unassigned) [Example 7b, (−)-2-(2-Dimethylamino-ethyl)-10-(3-hydroxy-phenyl)-6-methoxy-3a-methyl-3a,4,9,10-tetrahydro-2,9,10a-triaza-cyclopenta[b]fluorene-1,3-dione] | ≥ 3.16 | ≤ 0.0398
CC[C@@]12Cc3c([nH]c4ccc(OC)cc34)[C@@H](c3cccc(O)c3)N1C(=O)N(CCCN(C)C)C2=O (racemic) [Example 19, (3aSR,10RS)-2-(3-Dimethylamino-propyl)-3a-ethyl-10-(3-hydroxy-phenyl)-6-methoxy-3a,4,9,10-tetrahydro-2,9,10a-triaza-cyclopenta[b]fluorene-1,3-dione] | ≥ 3.16 | ≤ 0.0398
COc1ccc2[nH]c3c(c2c1)C[C@@]1(C)C(=O)N(CCCCN(C)C)C(=O)N1[C@@H]3c1cccc(O)c1 (racemic) [Example 14, (3aSR,10RS)-2-(4-Dimethylamino-butyl)-10-(3-hydroxy-phenyl)-6-methoxy-3a-methyl-3a,4,9,10-tetrahydro-2,9,10a-triaza-cyclopenta[b]fluorene-1,3-dione] | ≥ 3.16 | ≤ 0.0398
COc1ccc2[nH]c3c(c2c1)C[C@@]1(C)C(=O)N(CCN2CCC2)C(=O)N1[C@@H]3c1cccc(O)c1 (racemic) [Example 33, (3aSR,10RS)-2-(2-Azetidin-1-yl-ethyl)-10-(3-hydroxy-phenyl)-6-methoxy-3a-methyl-3a,4,9,10-tetrahydro-2,9,10a-triaza-cyclopenta[b]fluorene-1,3-dione] | ≥ 3.16 | ≤ 0.0398
CCN(C)CCN1C(=O)N2[C@H](c3cccc(O)c3)c3[nH]c4ccc(OC)cc4c3C[C@@]2(C)C1=O (racemic) [Example 52, (3aSR,10RS)-2-[2-(Ethyl-methyl-amino)-ethyl]-10-(3-hydroxy-phenyl)-6-methoxy-3a-methyl-3a,4,9,10-tetrahydro-2,9,10a-triaza-cyclopenta[b]fluorene-1,3-dione] | ≥ 3.16 | ≤ 0.0398
CNCCN1C(=O)N2[C@H](c3cccc(O)c3)c3[nH]c4ccc(Cl)cc4c3C[C@@]2(C)C1=O (racemic) [Example 28, (3aSR,10RS)-6-Chloro-10-(3-hydroxy-phenyl)-3a-methyl-2-(2-methylamino-ethyl)-3a,4,9,10-tetrahydro-2,9,10a-triaza-cyclopenta[b]fluorene-1,3-dione] | ≥ 3.16 | ≤ 0.0398
COc1ccc2[nH]c3c(c2c1)C[C@@]1(C)C(=O)N(CCN)C(=O)N1[C@@H]3c1cccc(O)c1 (racemic) [Example 25, (3aSR,10RS)-2-(2-Amino-ethyl)-10-(3-hydroxy-phenyl)-6-methoxy-3a-methyl-3a,4,9,10-tetrahydro-2,9,10a-triaza-cyclopenta[b]fluorene-1,3-dione] | ≥ 3.16 | ≤ 0.0398
COc1ccc2[nH]c3c(c2c1)C[C@@]1(C)C(=O)N(CCN2CCN(C(C)=O)CC2)C(=O)N1[C@@H]3c1cccc(O)c1 (racemic) [Example 32, (3aSR,10RS)-2-[2-(4-Acetyl-piperazin-1-yl)-ethyl]-10-(3-hydroxy-phenyl)-6-methoxy-3a-methyl-3a,4,9,10-tetrahydro-2,9,10a-triaza-cyclopenta[b]fluorene-1,3-dione] | ≥ 3.16 | 0.0398 to 0.251
